The record followed here is article PMC9163592 (The Journal of Biological Chemistry, 2022).

Experiment [1] deals with IsdH linker-NEAT3 (Staphylococcus aureus, UniProt Q931P4). Put plainly: biochemical.
For experiment [2], the target named is IsdH NEAT3 (Staphylococcus aureus, UniProt Q931P4). Put plainly: biochemical.
Sequence of IsdH NEAT3 (Q931P4 539-664): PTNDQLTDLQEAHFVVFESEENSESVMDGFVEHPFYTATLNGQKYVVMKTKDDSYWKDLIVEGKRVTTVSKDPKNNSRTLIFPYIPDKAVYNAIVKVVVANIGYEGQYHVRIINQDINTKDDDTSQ

Sequence of IsdH linker-NEAT3 (Q931P4 486-664): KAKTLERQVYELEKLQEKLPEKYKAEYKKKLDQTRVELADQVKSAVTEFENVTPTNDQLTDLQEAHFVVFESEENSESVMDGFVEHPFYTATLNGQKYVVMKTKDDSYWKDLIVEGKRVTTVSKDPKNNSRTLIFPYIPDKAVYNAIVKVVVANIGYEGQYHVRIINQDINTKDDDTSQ

The term Kd denotes a measure of binding affinity in units of concentration. Low values mean a tighter complex, high ones a looser complex. On to `C=CC1=C(C)C2=Cc3c(C=C)c(C)c4[n]3[Fe]([Cl])[n]3c(c(C)c(CCC(=O)O)c3=CC3=NC(=C4)C(C)=C3CCC(=O)O)=CC1=N2` [heme], for which the Kd in experiment [1] came out at 0.51 ± 0.16 nM; in experiment [2] it was 1.05 ± 0.15 nM.
